Drawing on ChEMBL document CHEMBL1129928, “Selectin-ligand interactions revealed by molecular dynamics simulation in solution” (J Med Chem, 1997), this text covers IC50 for 3 compounds.

Common to all, as to assay type: cell-based, Endothelial cell
The target of one assay is T1, L-selectin (Homo sapiens, UniProt P14151).
T1 sequence (P14151 whole entry): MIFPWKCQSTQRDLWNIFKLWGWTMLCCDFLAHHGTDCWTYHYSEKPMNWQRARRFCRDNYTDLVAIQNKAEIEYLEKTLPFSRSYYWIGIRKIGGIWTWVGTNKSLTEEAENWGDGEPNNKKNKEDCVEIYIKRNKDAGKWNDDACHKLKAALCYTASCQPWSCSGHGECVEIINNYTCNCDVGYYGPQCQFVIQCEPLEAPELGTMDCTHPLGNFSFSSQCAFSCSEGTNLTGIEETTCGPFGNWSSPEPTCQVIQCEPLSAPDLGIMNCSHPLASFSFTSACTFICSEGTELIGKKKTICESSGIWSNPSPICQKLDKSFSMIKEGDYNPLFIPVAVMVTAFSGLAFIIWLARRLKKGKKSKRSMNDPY
Briefly: Inhibitory activity against Selectin L expressed in endothelial cells.

For the next assay, the target named is T2, P-selectin (Homo sapiens, UniProt P16109).
T2 sequence (P16109 whole entry): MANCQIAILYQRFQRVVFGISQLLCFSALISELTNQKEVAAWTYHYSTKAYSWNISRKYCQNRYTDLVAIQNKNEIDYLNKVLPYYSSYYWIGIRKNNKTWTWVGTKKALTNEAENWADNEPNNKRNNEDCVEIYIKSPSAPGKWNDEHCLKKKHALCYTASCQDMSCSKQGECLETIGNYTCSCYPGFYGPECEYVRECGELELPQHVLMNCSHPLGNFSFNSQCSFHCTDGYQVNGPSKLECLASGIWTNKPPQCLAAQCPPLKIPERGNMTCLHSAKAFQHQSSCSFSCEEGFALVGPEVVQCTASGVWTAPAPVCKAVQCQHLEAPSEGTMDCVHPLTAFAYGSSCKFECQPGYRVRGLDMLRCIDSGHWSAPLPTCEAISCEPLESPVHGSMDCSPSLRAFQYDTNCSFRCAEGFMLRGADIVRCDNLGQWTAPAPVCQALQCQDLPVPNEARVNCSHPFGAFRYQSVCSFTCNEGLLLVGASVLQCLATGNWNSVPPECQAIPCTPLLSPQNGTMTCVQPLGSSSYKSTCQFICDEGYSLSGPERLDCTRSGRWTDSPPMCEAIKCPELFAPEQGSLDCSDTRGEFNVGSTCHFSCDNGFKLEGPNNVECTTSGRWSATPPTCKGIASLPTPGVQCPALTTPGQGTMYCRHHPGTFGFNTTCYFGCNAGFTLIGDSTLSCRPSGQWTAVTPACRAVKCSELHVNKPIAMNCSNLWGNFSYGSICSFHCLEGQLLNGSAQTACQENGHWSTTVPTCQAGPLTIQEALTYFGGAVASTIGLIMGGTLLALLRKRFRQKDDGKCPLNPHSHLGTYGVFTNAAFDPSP
Briefly: Inhibitory activity against Selectin P expressed in endothelial cells.

The next assay deals with T3, E-selectin (Homo sapiens, UniProt P16581).
T3 sequence (P16581 whole entry): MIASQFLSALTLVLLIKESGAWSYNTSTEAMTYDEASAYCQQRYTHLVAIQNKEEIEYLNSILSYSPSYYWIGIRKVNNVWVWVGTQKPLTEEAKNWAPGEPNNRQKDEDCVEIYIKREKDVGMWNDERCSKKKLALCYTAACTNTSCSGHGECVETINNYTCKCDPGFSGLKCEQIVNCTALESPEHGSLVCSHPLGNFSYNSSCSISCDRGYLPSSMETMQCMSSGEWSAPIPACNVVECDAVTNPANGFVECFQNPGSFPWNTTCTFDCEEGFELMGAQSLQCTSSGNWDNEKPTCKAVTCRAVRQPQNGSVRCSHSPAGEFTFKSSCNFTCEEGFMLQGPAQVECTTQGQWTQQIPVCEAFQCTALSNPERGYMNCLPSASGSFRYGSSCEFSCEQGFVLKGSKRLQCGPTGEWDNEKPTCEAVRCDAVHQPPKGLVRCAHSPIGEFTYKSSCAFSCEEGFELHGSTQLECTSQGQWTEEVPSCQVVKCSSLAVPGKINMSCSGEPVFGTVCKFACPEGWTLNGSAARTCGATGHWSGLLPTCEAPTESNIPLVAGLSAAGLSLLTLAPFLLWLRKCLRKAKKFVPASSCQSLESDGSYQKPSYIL
Briefly: Inhibitory activity against E-selectin expressed in endothelial cells.

Structures are written as SMILES.

Regarding `CCCCCCCCCCCCCCC(CCCCCCCCCCCCCC)CO[C@@H]1O[C@H](CO)[C@@H](O[C@@H]2O[C@H](CO)[C@H](O)[C@H](OS(=O)(=O)O)[C@H]2O)[C@H](O[C@@H]2O[C@@H](C)[C@@H](O)[C@@H](O)[C@@H]2O)[C@H]1O`, the half-maximal inhibitory concentration (IC50) was 30 µM against L-selectin, 100 µM at P-selectin and 280 µM against E-selectin.

In the case of `C[C@@H]1O[C@@H](O[C@@H]2[C@H](O)[C@H](O)O[C@@H](CO)[C@H]2O[C@@H]2O[C@@H](CO)[C@H](O)[C@H](OS(=O)(=O)O)[C@@H]2O)[C@@H](O)[C@@H](O)[C@@H]1O`, the IC50 at L-selectin was > 1000 µM; against P-selectin, 300 µM; against E-selectin it was > 1000 µM.

In the case of `CC(=O)N[C@H]1[C@H]([C@H](O)[C@H](O)CO)O[C@@](O[C@@H]2[C@H](O)[C@H](O[C@H]3[C@H](O[C@@H]4O[C@@H](C)[C@@H](O)[C@H](O)[C@@H]4O)[C@H](NC(C)=O)C(O)O[C@H]3CO)O[C@@H](CO)[C@@H]2O)(C(=O)O)C[C@H]1O` (some centres undefined), the IC50 against L-selectin was > 1000 µM; against P-selectin, > 1000 µM; on E-selectin it was 600 µM.
